For the test, the target named is mAChR M1 (Homo sapiens, UniProt P11229). Briefly: In vitro cellular calcium flux assay, positive allosteric modulation of mAChR M1. Format: cell-based. The following applies: BHK cells expressing mAChR M1, EC20 carbachol, Examples 76-80 and 82-89 slightly modified procedure. The method, then:
Baby hamster kidney cells stably expressing human or rat mAChR M1 to M5 were utilised for primary and selectivity profiling activities. mAChR M2 and M4 cell lines also stably expressed the chimeric Gαqi5 G-protein.
Human mAChR M1, M3, M5 and rat M1 cells were grown in low glucose Dulbecco's Modified Eagle's Medium (DMEM) medium plus heat inactivated 10% fetal bovine serum (HI FBS) and 500 μg/ml hygromycin B^1. Human mAChR M2 and M4 cells were maintained as above with^2 the addition of 500 μg/ml G418 to the media. Cells were maintained in culture at 37° C./5% CO2 and passaged twice weekly by treatment with 0.05% Trypsin/EDTA detachment solution, centrifugation (200 g, 5 min) and re-suspension in fresh media. Following cell expansion, cells were cryopreserved at −80° C. by treatment with 0.05% Trypsin/EDTA detachment solution, centrifugation (200 g, 5 min) and re-suspension of the pellet in freezing media (90% HI FBS/10% DMSO^3) at 15E6 cells/ml^4.
Prior to assaying, cells were prepared by thawing at 37° C. in a water bath, centrifugation (200 g, 5 min) and re-suspension of the pellet in fresh media. 15000 cells per well were seeded in black, clear bottomed 384-well Greiner Bio-One plates in plating medium (DMEM/10% HI FBS) and incubated overnight at 37 C/5% CO2.
On the day of the assay, media was removed from each well and replaced with 50 μl^5 assay buffer (HBSS with 20 mM HEPES and 2.5 mM Probenecid) containing the calcium indicator, Calcium 4 (Molecular Devices). Cells were then incubated at 37° C./5% CO2 for 30 min and at room temperature.
Compound preparation was carried out by generation of 11-point, 1 in 3 serial dilution concentration response curves in 100% DMSO. Compound was then diluted 1 in 65^6 with assay buffer (HBSS with 20 mM HEPES and 2.5 mM Probenecid) prior to the addition of 10 ul^7 to the cells using a Tetra fluorometric imaging plate reader (Molecular Devices)^8. Compound driven increases in intracellular calcium flux was measured as an increase in fluorescence (494Ex, 516Em)^9.
Positive allosteric modulator pEC50 values and antagonist pIC50 values for each compound were then determined. […] The points of modification and the alternate reagents, concentrations or equipment employed in these examples were: ^1200 μg/ml hygromycin B; ^2G418 not added; ^3CELLBANKER 1; ^410E6; ^5 40 μl; ^6 1 in 99; ^7 20 μl; ^8FDSS6000 (Hamamatsu Photonics); ^9(480Ex, 540Em); ^10Spotfire (TIBCO).
(A change in cytosolic calcium serves as a functional read-out for many receptors and channels.)

SMILES strings stand for the structures.

This is an account of results in US10072005B2, “4-azaindole derivatives” (EISAI R&D MANAGEMENT CO., LTD., priority 2013, dated 2018).

Chain of mAChR M1 (P11229 whole entry, looked up): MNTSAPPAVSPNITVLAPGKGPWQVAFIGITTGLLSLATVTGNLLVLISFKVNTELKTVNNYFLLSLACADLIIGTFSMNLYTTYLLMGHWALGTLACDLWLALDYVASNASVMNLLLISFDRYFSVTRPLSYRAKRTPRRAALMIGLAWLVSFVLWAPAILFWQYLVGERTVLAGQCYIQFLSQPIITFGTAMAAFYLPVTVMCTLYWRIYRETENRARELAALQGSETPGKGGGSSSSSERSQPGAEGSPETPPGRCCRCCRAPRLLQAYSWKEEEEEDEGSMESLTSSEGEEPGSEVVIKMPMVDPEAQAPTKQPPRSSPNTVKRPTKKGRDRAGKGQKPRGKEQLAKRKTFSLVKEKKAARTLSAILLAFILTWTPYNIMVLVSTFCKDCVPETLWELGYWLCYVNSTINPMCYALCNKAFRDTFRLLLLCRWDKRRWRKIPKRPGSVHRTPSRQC

As to `Cc1ccnc2c(C(=O)N[C@H]3CCCC[C@@H]3O)cn(Cc3cnn(C)c3)c12` [Example 73, N-((1S,2S)-2-Hydroxycyclohexyl)-7-methyl-1-((1-methyl-1H-pyrazol-4-yl)methyl)-1H-pyrrolo[3,2-b]pyridine-3-carboxamide], the “pEC50 for positive allosteric modulation” value turned out to be 7.9.

For the molecule `Cc1cnc(Cn2cc(C(=O)N[C@H]3CCCC[C@@H]3O)c3nccc(Cl)c32)s1` [Example 75, 7-Chloro-N-((1S,2S)-2-hydroxycyclohexyl)-1-((5-methylthiazol-2-yl)methyl)-1H-pyrrolo[3,2-b]pyridine-3-carboxamide], the “pEC50 for positive allosteric modulation” value worked out at 6.6.

On to `O=C(NC1CCOCC1)c1cn(Cc2ccc(F)cc2)c2cccnc12` [Example 29, 1-(4-Fluorobenzyl)-N-(tetrahydro-2H-pyran-4-yl)-1H-pyrrolo[3,2-b]pyridine-3-carboxamide], for which the “pEC50 for positive allosteric modulation” value is recorded as 5.8.

Turning to `O=C(NC1CCC(F)(F)CC1)c1cn(Cc2ccc(-n3cccn3)cc2)c2cccnc12` [Example 51, 1-(4-(1H-Pyrazol-1-yl)benzyl)-N-(4,4-difluorocyclohexyl)-1H-pyrrolo[3,2-b]pyridine-3-carboxamide], the “pEC50 for positive allosteric modulation” value amounted to 6.3.

For the molecule `O=C(N[C@H]1CCOC[C@@H]1O)c1cn(Cc2ccc(F)cc2)c2c(Cl)ccnc12` [Example 88, 7-Chloro-1-(4-fluorobenzyl)-N-((3R,4S)-3-hydroxytetrahydro-2H-pyran-4-yl)-1H-pyrrolo[3,2-b]pyridine-3-carboxamide], the “pEC50 for positive allosteric modulation” value is given as 6.4.

As to `O=C(NC1(CO)CCCC1)c1cn(Cc2ccc(F)cc2)c2cccnc12` [Example 21, 1-(4-Fluorobenzyl)-N-(1-(hydroxymethyl)cyclopentyl)-1H-pyrrolo[3,2-b]pyridine-3-carboxamide], the “pEC50 for positive allosteric modulation” value is 5.7.

On to `Cc1ccnc(Cn2cc(C(=O)N[C@H]3CCCC[C@@H]3O)c3nccc(Cl)c32)c1` [Example 80, 7-Chloro-N-((1S,2S)-2-hydroxycyclohexyl)-1-((4-methylpyridin-2-yl)methyl)-1H-pyrrolo[3,2-b]pyridine-3-carboxamide], for which the “pEC50 for positive allosteric modulation” value was found to be 7.1.

As for `Cc1ccc(Cn2cc(C(=O)N[C@H]3CCCC[C@@H]3O)c3ncccc32)cn1` [Example 25, N-((1S,2S)-2-Hydroxycyclohexyl)-1-((6-methylpyridin-3-yl)methyl)-1H-pyrrolo[3,2-b]pyridine-3-carboxamide], the “pEC50 for positive allosteric modulation” value was determined as 6.2.

On to `O=C(N[C@H]1CCCC[C@@H]1O)c1cn(Cc2ccccc2F)c2cccnc12` [Example 22, 1-(2-Fluorobenzyl)-N-((1S,2S)-2-hydroxycyclohexyl)-1H-pyrrolo[3,2-b]pyridine-3-carboxamide], for which the “pEC50 for positive allosteric modulation” value stood at 6.5.

For the molecule `O=C(N[C@H]1CCCC[C@@H]1O)c1cn(Cc2cccc(F)c2)c2cccnc12` [Example 4, 1-(3-Fluorobenzyl)-N-((1S,2S)-2-hydroxycyclohexyl)-1H-pyrrolo[3,2-b]pyridine-3-carboxamide], the “pEC50 for positive allosteric modulation” value amounted to 6.8.

On to `Cn1ccnc1-c1ccc(Cn2cc(C(=O)N[C@H]3CCCC[C@@H]3O)c3ncccc32)cc1` [Example 42, N-((1S,2S)-2-Hydroxycyclohexyl)-1-(4-(1-methyl-1H-imidazol-2-yl)benzyl)-1H-pyrrolo[3,2-b]pyridine-3-carboxamide], for which the “pEC50 for positive allosteric modulation” value was found to be 7.0.

Take `N#Cc1ccc2c(n1)c(C(=O)N[C@H]1CCCC[C@@H]1O)cn2Cc1ccc(-n2cccn2)cc1` [Example 41, 1-(4-(1H-Pyrazol-1-yl)benzyl)-5-cyano-N-((1S,2S)-2-hydroxycyclohexyl)-1H-pyrrolo[3,2-b]pyridine-3-carboxamide]: the EC50 (read-out: pEC50 for positive allosteric modulation (converted)) was 316 nM.

Take `Cn1cc(-c2ccc(Cn3cc(C(=O)N[C@H]4CCCC[C@@H]4O)c4ncccc43)cc2)cn1` [Example 57, N-((1S,2S)-2-Hydroxycyclohexyl)-1-(4-(1-methyl-1H-pyrazol-4-yl)benzyl)-1H-pyrrolo[3,2-b]pyridine-3-carboxamide]: the “pEC50 for positive allosteric modulation” value is recorded as 7.6.

In the case of `O=C(N[C@H]1CCCC[C@@H]1O)c1cn(Cc2ccc(OC(F)(F)F)cc2)c2cccnc12` [Example 9, N-((1S,2S)-2-Hydroxycyclohexyl)-1-(4-(trifluoromethoxy)benzyl)-1H-pyrrolo[3,2-b]pyridine-3-carboxamide], the “pEC50 for positive allosteric modulation” value is listed as 6.6.

Consider `COc1ccc(Cn2cc(C(=O)N[C@H]3CCCC[C@@H]3O)c3ncccc32)cc1` [Example 93, N-((1S,2S)-2-hydroxycyclohexyl)-1-(4-methoxybenzyl)-1H-pyrrolo[3,2-b]pyridine-3-carboxamide], for which the “pEC50 for positive allosteric modulation” value is given as 6.9.

As for `O=C(N[C@H]1CCCC[C@@H]1O)c1cn(Cc2cccc(F)c2F)c2c(Cl)ccnc12` [Example 15, 7-Chloro-1-(2,3-difluorobenzyl)-N-((1S,2S)-2-hydroxycyclohexyl)-1H-pyrrolo[3,2-b]pyridine-3-carboxamide], the “pEC50 for positive allosteric modulation” value was 7.0.

For `O=C(NC1CCNCC1)c1cn(Cc2ccc(F)cc2)c2cccnc12` [Example 30, 1-(4-Fluorobenzyl)-N-(piperidin-4-yl)-1H-pyrrolo[3,2-b]pyridine-3-carboxamide], the “pEC50 for positive allosteric modulation” value is given as 6.5.

In the case of `Cc1cccc(Cn2cc(C(=O)N[C@H]3CCCC[C@@H]3O)c3nccc(Cl)c32)n1` [Example 16, 7-Chloro-N-((1S,2S)-2-hydroxycyclohexyl)-1-((6-methylpyridin-2-yl)methyl)-1H-pyrrolo[3,2-b]pyridine-3-carboxamide], the “pEC50 for positive allosteric modulation” value was 6.5.

For the molecule `Cc1ccc(Cn2cc(C(=O)N[C@H]3CCCC[C@@H]3O)c3nccc(C)c32)cc1` [Example 63, N-((1S,2S)-2-Hydroxycyclohexyl)-7-methyl-1-(4-methylbenzyl)-1H-pyrrolo[3,2-b]pyridine-3-carboxamide], the “pEC50 for positive allosteric modulation” value came to 7.6.

For the molecule `COc1ccc(Cn2cc(C(=O)N[C@H]3CCCC[C@@H]3O)c3nccc(OC)c32)cc1` [Example 105, N-((1S,2S)-2-hydroxycyclohexyl)-7-methoxy-1-(4-methoxybenzyl)-1H-pyrrolo[3,2-b]pyridine-3-carboxamide], the “pEC50 for positive allosteric modulation” value is 6.7.

For `Cc1cccc(Cn2cc(C(=O)N[C@H]3CCCC[C@@H]3O)c3ncccc32)c1` [Example 96, N-((1S,2S)-2-hydroxycyclohexyl)-1-(3-methylbenzyl)-1H-pyrrolo[3,2-b]pyridine-3-carboxamide], the “pEC50 for positive allosteric modulation” value is recorded as 6.7.

Regarding `Cc1ccc(Cn2cc(C(=O)N[C@H]3CCCC[C@@H]3O)c3nccc(Cl)c32)cn1` [Example 62, 7-Chloro-N-((1S,2S)-2-hydroxycyclohexyl)-1-((6-methylpyridin-3-yl)methyl)-1H-pyrrolo[3,2-b]pyridine-3-carboxamide], the “pEC50 for positive allosteric modulation” value was determined as 7.4.

Turning to `COc1cc(Cn2cc(C(=O)N[C@H]3CCCC[C@@H]3O)c3nccc(C)c32)ccn1` [Example 71, N-((1S,2S)-2-Hydroxycyclohexyl)-1-((2-methoxypyridin-4-yl)methyl)-7-methyl-1H-pyrrolo[3,2-b]pyridine-3-carboxamide], the “pEC50 for positive allosteric modulation” value was 7.9.

Take `Cc1ccnc2c(C(=O)N[C@H]3CCCC[C@@H]3O)cn(Cc3cc(F)cc(F)c3)c12` [Example 101, 1-(3,5-difluorobenzyl)-N-((1S,2S)-2-hydroxycyclohexyl)-7-methyl-1H-pyrrolo[3,2-b]pyridine-3-carboxamide]: the “pEC50 for positive allosteric modulation” value was determined as 7.0.

Consider `O=C(N[C@H]1CCCC[C@@H]1O)c1cn(Cc2ccc(Cl)cc2)c2cccnc12` [Example 23, 1-(4-Chlorobenzyl)-N-((1S,2S)-2-hydroxycyclohexyl)-1H-pyrrolo[3,2-b]pyridine-3-carboxamide], for which the “pEC50 for positive allosteric modulation” value is recorded as 6.6.
